Assay results published in patent publication US12433865B2, “Compositions comprising PGI2-receptor agonists and processes for the preparation thereof” (Arena Pharmaceuticals, Inc., priority 2018, dated 2025).

Experiment: Release (dissolution) profile of capsules, USP Apparatus 2 (paddle)
Assay type: physicochemical
Text: USP Apparatus 2 (Paddle Apparatus) is described, for example, in the United States Pharmacopeial Convention, Feb. 1, 2012, Chapter <711> (“Dissolution”), incorporated by reference herein in its entirety. See http://www.usp.org/sites/default/files/usp_pdf/EN/USPNF/revisions/m99470-gc_711.pdf. The assembly from Apparatus 1 is used, except that a paddle formed from a blade and a shaft is used as the stirring element. The shaft is positioned so that its axis is not more than 2 mm from the vertical axis of the vessel at any point and rotates smoothly without significant wobble that could affect the results. The vertical center line of the blade passes through the axis of the shaft so that the bottom of the blade is flush with the bottom of the shaft. A distance of 25±2 mm between the bottom of the blade and the inside bottom of the vessel is maintained during the test. The metallic or suitably inert, rigid blade and shaft comprise a single entity. A suitable two-part detachable design may be used provided the assembly remains firmly engaged during the test. The paddle blade and shaft may be coated with a suitable coating so as to make them inert. The dosage unit is allowed to sink to the bottom of the vessel before rotation of the blade is started. A small, loose piece of nonreactive material, such as not more than a few turns of wire helix, may be attached to dosage units that would otherwise float. Other validated sinker devices may be used.
Unless otherwise specified, the release profiles for capsules were measured using USP Apparatus 2 (paddle).
All release profiles disclosed in Tables 3c-3p were measured with USP Apparatus 2 (paddle) at 50 rpm in 500 mL of aqueous sodium phosphate at a concentration of 0.05 M (pH=6.8). The values in a given table relate to capsules obtained from the same batch. Values shown represent mean values over a number of dissolution tests (“n” in each table) in each case.

- mean value (n = 6) of % of Compound 1 released (Table 3k: size 4 capsule, 0.03 mg Compound 1, Poloxamer 188:food grade GMS 50:50, 360 min): 91.4%
- mean value (n = 6) of % of Compound 1 released (Table 3k: size 4 capsule, 0.03 mg Compound 1, Poloxamer 188:food grade GMS 50:50, 480 min): 98.3%
- mean value (n = 4) of % of Compound 1 released (Table 3l: size 4 capsule, 0.5 mg Compound 1, Poloxamer 188:food grade GMS 50:50, 30 min): 9.9%
- mean value (n = 4) of % of Compound 1 released (Table 3l: size 4 capsule, 0.5 mg Compound 1, Poloxamer 188:food grade GMS 50:50, 60 min): 22.2%
- mean value (n = 4) of % of Compound 1 released (Table 3l: size 4 capsule, 0.5 mg Compound 1, Poloxamer 188:food grade GMS 50:50, 120 min): 42.9%
- mean value (n = 4) of % of Compound 1 released (Table 3l: size 4 capsule, 0.5 mg Compound 1, Poloxamer 188:food grade GMS 50:50, 180 min): 61.5%
- mean value (n = 4) of % of Compound 1 released (Table 3l: size 4 capsule, 0.5 mg Compound 1, Poloxamer 188:food grade GMS 50:50, 240 min): 76.9%
- mean value (n = 4) of % of Compound 1 released (Table 3l: size 4 capsule, 0.5 mg Compound 1, Poloxamer 188:food grade GMS 50:50, 360 min): 92.2%
- mean value (n = 4) of % of Compound 1 released (Table 3l: size 4 capsule, 0.5 mg Compound 1, Poloxamer 188:food grade GMS 50:50, 480 min): 96.7%
- mean value (n = 6) of % of Compound 1 released (Table 3m: size 4 capsule, 0.03 mg Compound 1, Poloxamer 188:food grade GMS 30:70, 60 min): 15.3%
- mean value (n = 6) of % of Compound 1 released (Table 3m: size 4 capsule, 0.03 mg Compound 1, Poloxamer 188:food grade GMS 30:70, 120 min): 27.4%
- mean value (n = 6) of % of Compound 1 released (Table 3m: size 4 capsule, 0.03 mg Compound 1, Poloxamer 188:food grade GMS 30:70, 180 min): 38.4%
- mean value (n = 6) of % of Compound 1 released (Table 3m: size 4 capsule, 0.03 mg Compound 1, Poloxamer 188:food grade GMS 30:70, 240 min): 49.0%
- mean value (n = 6) of % of Compound 1 released (Table 3m: size 4 capsule, 0.03 mg Compound 1, Poloxamer 188:food grade GMS 30:70, 360 min): 70.1%
- mean value (n = 6) of % of Compound 1 released (Table 3m: size 4 capsule, 0.03 mg Compound 1, Poloxamer 188:food grade GMS 30:70, 480 min): 85.9%
- mean value (n = 6) of % of Compound 1 released (Table 3m: size 4 capsule, 0.03 mg Compound 1, Poloxamer 188:food grade GMS 30:70, 600 min): 93.5%
- mean value (n = 6) of % of Compound 1 released (Table 3m: size 4 capsule, 0.03 mg Compound 1, Poloxamer 188:food grade GMS 30:70, 720 min): 97.6%
- mean value (n = 6) of % of Compound 1 released (Table 3m: size 4 capsule, 0.03 mg Compound 1, Poloxamer 188:food grade GMS 30:70, 840 min): 99.0%
- mean value (n = 4) of % of Compound 1 released (Table 3n: size 4 capsule, 0.5 mg Compound 1, Poloxamer 188:food grade GMS 30:70, 30 min): 7.9%
- mean value (n = 4) of % of Compound 1 released (Table 3n: size 4 capsule, 0.5 mg Compound 1, Poloxamer 188:food grade GMS 30:70, 60 min): 15.5%
- mean value (n = 4) of % of Compound 1 released (Table 3n: size 4 capsule, 0.5 mg Compound 1, Poloxamer 188:food grade GMS 30:70, 120 min): 26.9%
- mean value (n = 4) of % of Compound 1 released (Table 3n: size 4 capsule, 0.5 mg Compound 1, Poloxamer 188:food grade GMS 30:70, 180 min): 37.9%
- mean value (n = 4) of % of Compound 1 released (Table 3n: size 4 capsule, 0.5 mg Compound 1, Poloxamer 188:food grade GMS 30:70, 240 min): 48.8%
- mean value (n = 4) of % of Compound 1 released (Table 3n: size 4 capsule, 0.5 mg Compound 1, Poloxamer 188:food grade GMS 30:70, 360 min): 68.7%
- mean value (n = 4) of % of Compound 1 released (Table 3n: size 4 capsule, 0.5 mg Compound 1, Poloxamer 188:food grade GMS 30:70, 480 min): 83.4%
- mean value (n = 4) of % of Compound 1 released (Table 3n: size 4 capsule, 0.5 mg Compound 1, Poloxamer 188:food grade GMS 30:70, 600 min): 90.6%
- mean value (n = 4) of % of Compound 1 released (Table 3n: size 4 capsule, 0.5 mg Compound 1, Poloxamer 188:food grade GMS 30:70, 720 min): 94.7%
- mean value (n = 4) of % of Compound 1 released (Table 3n: size 4 capsule, 0.5 mg Compound 1, Poloxamer 188:food grade GMS 30:70, 735 min): 95.7%
- mean value (n = 4) of % of Compound 1 released (Table 3o: size 4 capsule, 0.5 mg Compound 1, Poloxamer 188:food grade GMS 30:70, 30 min): 5.6%
- mean value (n = 4) of % of Compound 1 released (Table 3o: size 4 capsule, 0.5 mg Compound 1, Poloxamer 188:food grade GMS 30:70, 60 min): 13.3%
- mean value (n = 4) of % of Compound 1 released (Table 3o: size 4 capsule, 0.5 mg Compound 1, Poloxamer 188:food grade GMS 30:70, 120 min): 25.5%
- mean value (n = 4) of % of Compound 1 released (Table 3o: size 4 capsule, 0.5 mg Compound 1, Poloxamer 188:food grade GMS 30:70, 180 min): 37.7%
- mean value (n = 4) of % of Compound 1 released (Table 3o: size 4 capsule, 0.5 mg Compound 1, Poloxamer 188:food grade GMS 30:70, 240 min): 49.7%
- mean value (n = 4) of % of Compound 1 released (Table 3o: size 4 capsule, 0.5 mg Compound 1, Poloxamer 188:food grade GMS 30:70, 360 min): 71.2%
- mean value (n = 4) of % of Compound 1 released (Table 3o: size 4 capsule, 0.5 mg Compound 1, Poloxamer 188:food grade GMS 30:70, 480 min): 84.0%
- mean value (n = 4) of % of Compound 1 released (Table 3o: size 4 capsule, 0.5 mg Compound 1, Poloxamer 188:food grade GMS 30:70, 600 min): 89.7%
- mean value (n = 4) of % of Compound 1 released (Table 3o: size 4 capsule, 0.5 mg Compound 1, Poloxamer 188:food grade GMS 30:70, 720 min): 93.1%
- mean value (n = 4) of % of Compound 1 released (Table 3o: size 4 capsule, 0.5 mg Compound 1, Poloxamer 188:food grade GMS 30:70, 735 min): 94.8%
- mean value (n = 4) of % of Compound 1 released (Table 3p: size 4 capsule, 0.5 mg Compound 1, Poloxamer 188:food grade GMS 30:70, 30 min): 7.3%
- mean value (n = 4) of % of Compound 1 released (Table 3p: size 4 capsule, 0.5 mg Compound 1, Poloxamer 188:food grade GMS 30:70, 60 min): 14.3%
- mean value (n = 4) of % of Compound 1 released (Table 3p: size 4 capsule, 0.5 mg Compound 1, Poloxamer 188:food grade GMS 30:70, 120 min): 26.1%
- mean value (n = 4) of % of Compound 1 released (Table 3p: size 4 capsule, 0.5 mg Compound 1, Poloxamer 188:food grade GMS 30:70, 180 min): 38.5%
- mean value (n = 4) of % of Compound 1 released (Table 3p: size 4 capsule, 0.5 mg Compound 1, Poloxamer 188:food grade GMS 30:70, 240 min): 51.1%
- mean value (n = 4) of % of Compound 1 released (Table 3p: size 4 capsule, 0.5 mg Compound 1, Poloxamer 188:food grade GMS 30:70, 360 min): 74.3%
- mean value (n = 4) of % of Compound 1 released (Table 3p: size 4 capsule, 0.5 mg Compound 1, Poloxamer 188:food grade GMS 30:70, 480 min): 87.0%
- mean value (n = 4) of % of Compound 1 released (Table 3p: size 4 capsule, 0.5 mg Compound 1, Poloxamer 188:food grade GMS 30:70, 600 min): 92.3%
- mean value (n = 4) of % of Compound 1 released (Table 3p: size 4 capsule, 0.5 mg Compound 1, Poloxamer 188:food grade GMS 30:70, 720 min): 95.0%
Compound: O=C(O)COC[C@H]1CC[C@H](COC(=O)N(c2ccccc2)c2ccc(Cl)cc2)CC1 [Compound 1, 2-(((1r,4r)-4-(((4-chlorophenyl)(phenyl)carbamoyloxy)methyl)cyclohexyl)methoxy)acetic acid]
